Counter-ions that a name gives are not always drawn.

T1 sequence (Q9Y5N1 whole entry): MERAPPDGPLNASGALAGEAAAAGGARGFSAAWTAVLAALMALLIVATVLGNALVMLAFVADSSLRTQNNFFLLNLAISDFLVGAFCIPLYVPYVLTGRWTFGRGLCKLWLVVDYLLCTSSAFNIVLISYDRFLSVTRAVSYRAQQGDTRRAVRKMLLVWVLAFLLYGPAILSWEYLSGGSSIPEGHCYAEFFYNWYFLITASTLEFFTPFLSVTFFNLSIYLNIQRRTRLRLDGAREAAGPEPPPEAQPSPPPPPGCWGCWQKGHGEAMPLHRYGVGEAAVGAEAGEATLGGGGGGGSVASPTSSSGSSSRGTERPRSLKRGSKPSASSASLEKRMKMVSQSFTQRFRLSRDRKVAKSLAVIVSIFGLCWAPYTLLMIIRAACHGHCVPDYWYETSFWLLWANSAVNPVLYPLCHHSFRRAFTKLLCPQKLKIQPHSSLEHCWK

The test addresses T1, histamine-3 (H3) receptor (Homo sapiens, UniProt Q9Y5N1).
T1 construct: expressed in transfected cells; host or cells: HEK293T
Briefly: Methyl Histamine Binding in Human Histamine-3 Receptor Cell Line. The following applies: membranes of stably transfected HEK293T cells, radioligand 1 nM, Ki from IC50 by Cheng-Prusoff. As for the experimental part: Evaluation of Methyl Histamine Binding in Human Histamine-3 Receptor Cell Line
The affinity of test compounds for the histamine-3 (H3) receptor is evaluated in the following manner. Stably transfected HEK293T cells are grown in DMEM containing 10% heat inactivated FBS and G-418 (500 ug/ml). Cells are scraped from the plate, transferred to centrifuge tubes, washed one time in PBS by centrifugation in a Sorvall RT7 Plus centrifuge (2000 rpm 10 minutes, 4° C.). The resulting pellets are stored at 80° C. until ready for use. Cells are re-suspended in buffer (50 mM Tris pH=7.5) and placed in a Dounce homogenizer, douncing ten times to homogenize cells. The homogenate is spun down by centrifugation (Sorvall RT7 Plus, 1800 rpm 10 minutes, 4° C.). The supernatant is placed in a Corex tube and spun down by centrifugation (Sorvall RC 5c Plus, 17,000 rpm 20 minutes, 4° C.). The pellet is resuspended in buffer (50 mM Tris, pH 7.5). Protein concentration (ug/ul) is determined using the Micro-BCA Protein Determination. The binding assay is set up in a 96 well microtiter plate in a total volume of 250 uL. Non-specific binding is determined in the presence of 10 uM clobenpropit. The final radioligand concentration is 1 nM. The test compound is serially diluted using the Beckman Biomek2000 to a final approximate range of 100 uM to 100 pM. Membranes are suspended in buffer, homogenized in 2 bursts of ten seconds using a Vitris mechanical homogenizer set at power setting 5. Ten μg of membranes are added to each well. Following a one hour incubation at 30° C., the reaction is terminated by the addition of ice cold buffer and rapid filtration with a Packard Filtermate Harvester through a GF/B filter pre-soaked with 1% PEI for one hour. The plate is dried for one hour at 37° C. and 60 μL Microscint Scintillant is added to each well. The CPM per well is measured on a Packard Top Count NXT. Ki values are determined in nM. The Ki is calculated from the IC50 (i.e. the concentration of competing ligand which displaces 50% of the specific binding of the radioligand). CPM values are expressed as % specific binding and plotted vs compound concentration. A curve is fitted using a four-parameter logistic fit and the IC50 value is determined. The Ki is calculated from this using the Cheng-Prusoff equation: […]=IC50/1+(L/Kd) where L=concentration of free radioligand used in the assay, and Kd is the dissociation constant of the radioligand for the receptor. L is determined for each experiment by counting an aliquot of the diluted radioligand (corresponding to that added to each well) and the Kd has previously been determined under identical conditions for this cell line/radioligand.
In general, Ki refers to the equilibrium dissociation constant of an inhibitor or competing ligand from its target. A lower Ki goes with tighter binding. Turning to `Brc1oc(-c2ccc(Cn3cnc4ccccc43)cc2)nc1CN1CCCC1` [Example 29, 1-{4-[5-bromo-4-(pyrrolidin-1-ylmethyl)-1,3-oxazol-2-yl]benzyl}-1H-benzimidazole], the inhibition constant Ki lay in the range of 25.1 to 50 nM.
Next, `c1ccc2c(c1)ncn2Cc1ccc(-c2nc(CN3CCCCCC3)co2)cc1` [Example 14, 1-{4-[4-(azepan-1-ylmethyl)-1,3-oxazol-2-yl]benzyl}-1H-benzimidazole]: no more than 10 nM; `Cn1c(CN2CCCC2)cnc1-c1ccc(-c2ccccc2)cc1` [Example 146, 2-Biphenyl-4-yl-1-methyl-5-pyrrolidin-1-ylmethyl-1H-imidazole fumarate salt]: greater than 100 nM; `CC1CCN(Cc2coc(-c3ccc(Cn4cnc5ccccc54)cc3)n2)CC1` [Example 17]: no more than 10 nM.
In the case of `Cn1c(CN2CCCC2)cnc1-c1ccc(F)cc1` [Example 145, 2-(4-Fluoro-phenyl)-1-methyl-5-pyrrolidin-1-ylmethyl-1H-imidazole fumarate salt] it was greater than 100 nM.
Next, `C[C@@H]1CCCN1Cc1coc(-c2ccc(Cn3c(C(F)(F)F)nc4ccccc43)cc2)n1` [Example 116, 1-[4-(4-{[(2R)-2-methylpyrrolidin-1-yl]methyl}-1,3-oxazol-2-yl)benzyl]-2-(trifluoromethyl)-1H-benzimidazole]: 10.1 to 25 nM; `FC(F)(F)c1nc2ccccc2n1Cc1ccc(-c2nc(CN3CCCCCC3)co2)cc1` [Example 120, 1-{4-[4-(azepan-1-ylmethyl)-1,3-oxazol-2-yl]benzyl}-2-(trifluoromethyl)-1H-benzimidazole]: 10.1 to 25 nM.
`CC1(C)CC2CC(C)(CN2Cc2cnc(-c3ccc(Cn4cnc5ccccc54)cc3)o2)C1` (centres unmarked) [Example 110, 1-(4-{5-[(1,3,3-trimethyl-6-azabicyclo[3.2.1]oct-6-yl)methyl]-1,3-oxazol-2-yl}benzyl)-1H-benzimidazole] registered a Ki greater than 100 nM.
For the compound `c1ccc2c(c1)ncn2Cc1ccc(-c2ncc(CN3CCCC3)o2)cc1` [Example 104, 1-{4-[5-(pyrrolidin-1-ylmethyl)-1,3-oxazol-2-yl]benzyl}-1H-benzimidazole], the inhibition constant (Ki) was greater than 100 nM.
`CCN(CC)Cc1cnc(-c2ccc(Cn3cnc4ccccc43)cc2)o1` [Example 113, N-({2-[4-(1H-benzimidazol-1-ylmethyl)phenyl]-1,3-oxazol-5-yl}methyl)-N-ethylethanamine] registered an inhibition constant (Ki) greater than 100 nM.
In the case of `C[C@H]1CCCN1Cc1cnc(-c2ccc(Cn3cnc4ccccc43)cc2)o1` [Example 106, 1-[4-(5-{[(2S)-2-methylpyrrolidin-1-yl]methyl}-1,3-oxazol-2-yl)benzyl]-1H-benzimidazole] it was no more than 10 nM; in that of `CN(C)Cc1coc(-c2ccc(-n3cnc4ccccc43)cc2)n1` [Example 38], 10.1 to 25 nM; in that of `CN(C)Cc1coc(-c2ccc(Cn3cnc4ccccc43)cc2)n1` [Example 8], 10.1 to 25 nM.
Next, `c1ccc2c(c1)nc(-c1ccc(-c3nc(CN4CCCC4)co3)cc1)n2CCC1CCCCC1` [Example 60, 1-(2-cyclohexylethyl)-2-{4-[4-(pyrrolidin-1-ylmethyl)-1,3-oxazol-2-yl]phenyl}-1H-benzimidazole]: 50.1 to 100 nM.
`C[C@@H]1CCCN1Cc1coc(-c2ccc(Cn3c(-c4ccccc4)nc4ccccc43)cc2)n1` [Example 119, 1-[4-(4-{[(2R)-2-methylpyrrolidin-1-yl]methyl}-1,3-oxazol-2-yl)benzyl]-2-phenyl-1H-benzimidazole]: the Ki is 10.1 to 25 nM.
The compound `c1ccc2c(c1)ncn2-c1ccc(-c2nc(CN3CCCCCC3)co2)cc1` [Example 44, 1-{4-[4-(azepan-1-ylmethyl)-1,3-oxazol-2-yl]phenyl}-1H-benzimidazole] had an inhibitory constant (Ki) of 25.1 to 50 nM.
In turn, `c1ccc2c(c1)ncn2-c1ccc(-c2nc(CN3CCCCC3)co2)cc1` [Example 37] returned a Ki of no more than 10 nM.
In the case of `Fc1ccc2c(cnn2Cc2ccc(-c3nc(CN4CCCC4)co3)cc2)c1` [Example 100, 5-fluoro-1-{4-[4-(pyrrolidin-1-ylmethyl)-1,3-oxazol-2-yl]benzyl}-1H-indazole], the Ki is 10.1 to 25 nM.
In the case of `CC1CCCN(Cc2coc(-c3ccc(Cn4cnc5ccccc54)cc3)n2)C1` (centres unmarked) [Example 16] it was no more than 10 nM.
As to `CC1CCCN1Cc1coc(-c2ccc(Cn3cnc4ccccc43)cc2)n1` (centres unmarked) [Example 13, 1-(4-{4-[(2-methylpyrrolidin-1-yl)methyl]-1,3-oxazol-2-yl}benzyl)-1H-benzimidazole], the inhibition constant Ki was no more than 10 nM.
`Cn1c(-c2ccc(-c3nc(CN4CCCCC4)co3)cc2)nc2ccccc21` [Example 52, 1-methyl-2-{4-[4-(piperidin-1-ylmethyl)-1,3-oxazol-2-yl]phenyl}-1H-benzimidazole] yielded a Ki of no more than 10 nM.
Next, `FC(F)(F)c1nc2ccccc2n1Cc1ccc(-c2nc(CN3CCCC3)co2)cc1` [Example 114]: no more than 10 nM; `CC1CCCN1Cc1coc(-c2ccc(-n3cnc4ccccc43)cc2)n1` (centres unmarked) [Example 43, 1-(4-{4-[(2-methylpyrrolidin-1-yl)methyl]-1,3-oxazol-2-yl}phenyl)-1H-benzimidazole]: 10.1 to 25 nM; `CCN(CC)Cc1coc(-c2ccc(-n3cnc4ccccc43)cc2)n1` [Example 42, N-({2-[4-(1H-benzimidazol-1-yl)phenyl]-1,3-oxazol-4-yl}methyl)-N-ethylethanamine]: 25.1 to 50 nM.
In the case of `c1ccc2c(c1)ncn2Cc1ccc(-c2nc(CN3CCCC3)cs2)cc1` [Example 71, 1-{4-[4-(Pyrrolidin-1-ylmethyl)-1,3-thiazol-2-yl]benzyl}-1H-benzimidazole Hydrochloride] it was 10.1 to 25 nM.
In the case of `CC1CCCCN1Cc1coc(-c2ccc(Cn3cnc4ccccc43)cc2)n1` (centres unmarked) [Example 15, 1-(4-{4-[(2-methylpiperidin-1-yl)methyl]-1,3-oxazol-2-yl}benzyl)-1H-benzimidazole] it was 50.1 to 100 nM; in that of `Cn1c(-c2ccc(-c3nc(CN4CCCC4)co3)cc2)nc2ccccc21` [Example 51, 1-methyl-2-{4-[4-(pyrrolidin-1-ylmethyl)-1,3-oxazol-2-yl]phenyl}-1H-benzimidazole], no more than 10 nM; in that of `CN1CCN(Cc2coc(-c3ccc(-n4cnc5ccccc54)cc3)n2)CC1` [Example 41, 1-(4-{4-[(4-methylpiperazin-1-yl)methyl]-1,3-oxazol-2-yl}phenyl)-1H-benzimidazole], greater than 100 nM.
On to `Fc1ccc2cnn(Cc3ccc(-c4nc(CN5CCCC5)co4)cc3)c2c1` [Example 101, 6-fluoro-1-{4-[4-(pyrrolidin-1-ylmethyl)-1,3-oxazol-2-yl]benzyl}-1H-indazole], for which the inhibitory constant (Ki) was 25.1 to 50 nM.
Compound `Cn1c(CN2CCCC2)cnc1-c1ccccc1` [Example 143, 1-Methyl-2-phenyl-5-pyrrolidin-1-ylmethyl-1H-imidazole fumarate salt] returned an inhibitory constant (Ki) greater than 100 nM.
Next, `CN(C)Cc1coc(-c2ccc(-c3nc4ccccc4n3C)cc2)n1` [Example 54, N,N-dimethyl-1-{2-[4-(1-methyl-1H-benzimidazol-2-yl)phenyl]-1,3-oxazol-4-yl}methanamine]: 10.1 to 25 nM.
In the case of `C[C@H]1CCCN1Cc1coc(-c2ccc(Cn3c(C(F)(F)F)nc4ccccc43)cc2)n1` [Example 118, 1-[4-(4-{[(2S)-2-methylpyrrolidin-1-yl]methyl}-1,3-oxazol-2-yl)benzyl]-2-(trifluoromethyl)-1H-benzimidazole] it was 10.1 to 25 nM; in that of `c1ccc(-c2nc3ccccc3n2Cc2ccc(-c3nc(CN4CCCCC4)co3)cc2)cc1` [Example 123, 2-phenyl-1-{4-[4-(piperidin-1-ylmethyl)-1,3-oxazol-2-yl]benzyl}-1H-benzimidazole], no more than 10 nM; in that of `c1ccc2c(c1)ncn2Cc1ccc(-c2ncc(CN3CCCCC3)o2)cc1` [Example 107, 1-{4-[5-(piperidin-1-ylmethyl)-1,3-oxazol-2-yl]benzyl}-1H-benzimidazole], greater than 100 nM.
In the case of `C[C@@H]1CCCN1Cc1coc(-c2ccc(Cn3ncc4ccc(F)cc43)cc2)n1` [Example 96, 6-fluoro-1-[4-(4-{[(2R)-2-methylpyrrolidin-1-yl]methyl}-1,3-oxazol-2-yl)benzyl]-1H-indazole] it was 50.1 to 100 nM.

For the origin of these results see patent US7803825B2, “Aminoalkylazole derivatives as histamine-3 antagonists” (Wyeth LLC, priority 2007, dated 2010).
